Experiment [1] deals with TGF-b induced Endothelin-1 production. Nature of the experiment: ET-1 assay: inhibitory effect on TGF-b induced endothelin-1 production. Format: cell-based. The conditions noted are these: Homo sapiens, Fibroblast; fibroblasts, stimulant (TGFb, serum, LPA etc), ET-1 in media by ELISA, 4-parameter fit. The gist of the method: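 Fibroblasts (primary human lung/dermal, HFL-1, 3T3) serum-starved 0-48 h, preincubated ~30 min with compound, then stimulated (TGFb, serum or LPA) for 16-48 h. Secreted ET-1 measured by ELISA; EC50 from 4-parameter logistic fit, with CC50 from ATPlite in the same wells.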
For orientation: ELISA stands for enzyme-linked immunosorbent assay.

The test system of experiment [2] is Fibroblasts (primary human lung and dermal, HFL-1, 3T3 etc). The experiment is described as follows: Cell proliferation assay (BrdU incorporation). Format: cell-based. The conditions noted are these: HFL1, stimulant (LPA, TGFb, serum etc), 50% inhibition of the increase of BrdU incorporation. How it is done: Assay of Inhibitory Effect on Cell Proliferation (BrdU Incorporation)
Fibroblasts (primary human lung and dermal, HFL-1, 3T3 etc) were plated on a 96-well plate and serum starved for 24-48 hours. The media were then exchanged for media containing stimulants (LPA, TGFb, serum etc) and cultured further for 16-24 hours before BrdU addition. After culturing for another 8 hours, cells were washed with PBS and the amount of BrdU incorporated into the cells was assayed by absorbance at 450 nm using the Cell proliferation ELISA system (RPN250, Amersham LIFE SCIENCE). The difference between the amount of BrdU incorporated in the stimulant-added well and the amount of BrdU incorporated in the well containing no stimulant represented the amount of BrdU incorporation accelerated by stimulant. The increase of BrdU incorporation without the addition of test compounds was set as 100% and the concentration of compound with 50% inhibition in the increase of BrdU incorporation (IC50 value) was determined. The test compounds were added 0-30 min before stimulant addition.
Compounds of some embodiments were prepared according to synthetic methods described herein and assay data obtained for IC50 for BrdU inhibition. The assay data obtained is presented in Table 3, in which A=less than 50 μM, B=greater than or equal to 50 μM and less than or equal to 200 μM; and C=greater than 200 μM.
(In general: Uptake of a labelled nucleoside into DNA is a usual measure of proliferation.)

Among the data in patent US10233195B2, “Anti-fibrotic pyridinones” (InterMune, Inc., priority 2014, dated 2019) are EC50 and IC50 values, retold here.

As for `CCOc1ccc(-n2cc(Br)c3nccnc3c2=O)c(C)c1` [Compound 61], the EC50 (in general, the midpoint of the concentration-response curve) in experiment [1] was < 50 µM. The IC50 (commonly the concentration that gives 50% inhibition) in experiment [2] is < 50 µM.

In the case of `CCOc1ccc(-n2cc(-c3cnn(C)c3)c3nccnc3c2=O)c(C)c1` [Compound 63], the EC50 in experiment [1] was < 50 µM. The IC50 in experiment [2] was < 50 µM.

`O=C(c1ccccc1)n1cc(-c2ccc(=O)n(-c3ccccc3)c2)cn1` [Compound 68]: in experiment [1], the EC50 is > 200 µM. The IC50 in experiment [2] was > 200 µM.

Consider `CS(=O)(=O)n1cc(-c2ccc(=O)n(-c3ccccc3)c2)cn1` [Compound 71], for which the EC50 in experiment [1] was > 200 µM. The half-maximal inhibitory concentration (IC50) in experiment [2] was > 200 µM.

For `CCOC(=O)n1cc(-c2ccc(=O)n(-c3ccccc3)c2)cn1` [Compound 73], in experiment [1], the EC50 was < 50 µM. Moreover, in experiment [2], the IC50 is > 200 µM.

`CC(C)NC(=O)n1cc(-c2ccc(=O)n(-c3ccccc3)c2)cn1` [Compound 75]: the 50% effective concentration (EC50) in experiment [1] was in the range of 50 to 200 µM. In experiment [2], this compound gave an IC50 of 50 to 200 µM.

For the compound `Cc1ccc(=O)n(CCc2ccccc2)c1` [Compound 80], the EC50 in experiment [1] is 50 to 200 µM. Moreover, in experiment [2], the IC50 is > 200 µM.

`O=c1cc(O)c(-c2ccc(F)cc2)cn1-c1ccc(OC(F)(F)F)cc1` [Compound 86] had an EC50 in experiment [1] of 50 to 200 µM. For the same compound, in experiment [2], the IC50 was < 50 µM.

Regarding `O=c1cc(Cl)c(-c2ccc(F)cc2)cn1-c1ccc(OC(F)(F)F)cc1` [Compound 87], in experiment [1], the EC50 is < 50 µM. Besides, the IC50 in experiment [2] is < 50 µM.

Regarding `O=C1CNCCN1CCOc1cc(=O)n(-c2ccc(OC(F)(F)F)cc2)cc1-c1ccc(F)cc1` [Compound 101], the EC50 in experiment [1] is > 200 µM. In experiment [2], this compound showed an IC50 of 50 to 200 µM.

As for `CCOc1ccc(-n2cc(-c3ccc(F)cc3)c(OC)cc2=O)c(C)c1` [Compound 119], the concentration for a half-maximal effect (EC50) in experiment [1] was < 50 µM. Further, the IC50 in experiment [2] is < 50 µM.

With `COc1cc(=O)n(-c2ccc(OC(F)(F)F)cc2)cc1-c1cnn(C)c1` [Compound 120], in experiment [1], the EC50 is < 50 µM. In addition, the IC50 in experiment [2] is < 50 µM.

In the case of `Cn1cc(-c2cn(-c3ccc(OC(F)(F)F)cc3)c(=O)cc2NCc2ccccc2)cn1` [Compound 123], the EC50 in experiment [1] was < 50 µM. Also, the IC50 in experiment [2] was < 50 µM.

Consider `CN(Cc1ccccc1)c1cc(=O)n(-c2ccc(OC(F)(F)F)cc2)cc1-c1cnn(C)c1` [Compound 126], for which, in experiment [1], the EC50 is < 50 µM. In experiment [2], the IC50 is < 50 µM.

Consider `Cn1cc(-c2cn(-c3ccc(OC(F)(F)F)cc3)c(=O)cc2NCc2c(F)cccc2F)cn1` [Compound 133], for which the EC50 in experiment [1] lay within 50 to 200 µM. The compound also came in with an IC50 in experiment [2] of 50 to 200 µM.

Turning to `COc1ccc(CNc2cc(=O)n(-c3ccc(OC(F)(F)F)cc3)cc2-c2cnn(C)c2)cc1` [Compound 134], the EC50 in experiment [1] was < 50 µM. Besides, in experiment [2], the IC50 was < 50 µM.

With `Cn1cc(-c2cn(-c3ccc(OC(F)(F)F)cc3)c(=O)cc2Oc2ccccc2)cn1` [Compound 153], the concentration giving a half-maximal response (EC50) in experiment [1] is < 50 µM. In experiment [2], the IC50 is < 50 µM.

`CCOc1ccc(Oc2cc(=O)n(-c3ccc(OC(F)(F)F)cc3)cc2-c2cnn(C)c2)cc1C#N` [Compound 157]: in experiment [1], the EC50 was < 50 µM. In addition, the IC50 in experiment [2] was > 200 µM.

Compound `Cn1cc(-c2cn(-c3ccc(OC(F)(F)F)cc3)c(=O)cc2NCc2cccnc2)cn1` [Compound 160] came in with an EC50 in experiment [1] of 50 to 200 µM. Also, in experiment [2], the concentration for half-maximal inhibition (IC50) was < 50 µM.

For the compound `Cn1cc(-c2cn(-c3ccc(OC(F)(F)F)cc3)c(=O)cc2NCc2ccccn2)cn1` [Compound 161], the EC50 in experiment [1] was < 50 µM. For the same compound, the IC50 in experiment [2] is < 50 µM.

Regarding `CCOc1ccc(-n2cc(-c3cnn(C)c3)c(OC)cc2=O)c(C)c1` [Compound 162], in experiment [1], the EC50 is < 50 µM. The IC50 in experiment [2] was < 50 µM.

Regarding `CCOc1ccc(-n2cc(-c3ccc(F)cc3)c(C)cc2=O)c(C)c1` [Compound 175], the EC50 in experiment [1] lay in the range of 50 to 200 µM. The 50% inhibitory concentration (IC50) in experiment [2] was < 50 µM.

In experiment [1], `COc1cc(-n2cc(-c3ccc(F)cc3)c(C)cc2=O)cc(OC)c1OC` [Compound 180] had a concentration for a half-maximal effect (EC50) of 50 to 200 µM. Also, the IC50 in experiment [2] was < 50 µM.

`Cc1cc(=O)n(-c2cccc3c2OCO3)cc1-c1ccc(F)cc1` [Compound 184] gave an EC50 in experiment [1] of 50 to 200 µM. Also, in experiment [2], the 50% inhibitory concentration (IC50) was < 50 µM.

Regarding `Cc1cc(=O)n(-c2cccc3c2OCCO3)cc1-c1ccc(F)cc1` [Compound 185], the EC50 in experiment [1] lay in the range of 50 to 200 µM. Besides, the IC50 in experiment [2] is < 50 µM.

On to `Cc1cc(=O)n(-c2cccc(NC(N)=O)c2)cc1-c1ccc(F)cc1` [Compound 188], for which, in experiment [1], the EC50 was < 50 µM. Further, the IC50 in experiment [2] is < 50 µM.

Consider `Cc1cc(=O)n(-c2cccc(C(N)=O)c2)cc1-c1ccc(F)cc1` [Compound 189], for which the EC50 in experiment [1] is > 200 µM. Besides, in experiment [2], the IC50 was > 200 µM.

Take `Cc1cc(=O)n(-c2ccc(OC(F)(F)F)cc2)cc1-c1cccc(F)c1` [Compound 192]: the concentration giving a half-maximal response (EC50) in experiment [1] was < 50 µM. Also, the IC50 in experiment [2] is < 50 µM.

For the compound `Cc1cc(=O)n(-c2ccc(OC(F)(F)F)cc2)cc1-c1ccc(F)c(Cl)c1` [Compound 195], the EC50 in experiment [1] was < 50 µM. Also, in experiment [2], the IC50 is < 50 µM.

In the case of `Cc1cc(=O)n(-c2ccc(OC(F)(F)F)cc2)cc1-c1ccc(F)c(F)c1` [Compound 196], in experiment [1], the EC50 lay in the range of 50 to 200 µM. In experiment [2], the IC50 was < 50 µM.

For the compound `Cc1cc(=O)n(-c2ccc(OC(F)(F)F)cc2)cc1-c1ccc(Cl)c(F)c1` [Compound 198], the EC50 in experiment [1] fell in the range of 50 to 200 µM. Further, the IC50 in experiment [2] is < 50 µM.

As for `Cc1cc(=O)n(-c2ccc(OC(F)(F)F)cc2)cc1-c1ccc2c(c1)OCCO2` [Compound 201], the EC50 in experiment [1] was in the range of 50 to 200 µM. Moreover, the IC50 in experiment [2] is < 50 µM.

As for `Cc1cc(=O)n(-c2ccc(OC(F)(F)F)cc2)cc1-c1ccc2c(c1)OCO2` [Compound 202], the EC50 in experiment [1] lay in the range of 50 to 200 µM. The IC50 in experiment [2] was < 50 µM.

In the case of `Cc1cc(=O)n(-c2ccc(OC(F)(F)F)cc2)cc1-c1cccc2c1OCO2` [Compound 203], in experiment [1], the EC50 is < 50 µM. In experiment [2], the IC50 is < 50 µM.

For `Cc1cc(=O)n(-c2ccc(OC(F)(F)F)cc2)cc1-c1cccc2c1OCCO2` [Compound 204], the EC50 in experiment [1] was < 50 µM. For the same compound, in experiment [2], the half-inhibitory concentration (IC50) is < 50 µM.

With `Cc1cc(=O)n(-c2ccc(OC(F)(F)F)cc2)cc1-c1ccc(-c2cncs2)cc1` [Compound 206], the EC50 in experiment [1] was in the range of 50 to 200 µM. Moreover, in experiment [2], the IC50 was < 50 µM.

For the compound `Cc1cc(=O)n(-c2ccc(OC(F)(F)F)cc2)cc1-c1cccc2c1OC(C)(C)O2` [Compound 207], the EC50 in experiment [1] is 50 to 200 µM. Also, the IC50 in experiment [2] is < 50 µM.

Compound `Cc1cc(=O)n(-c2ccc(OC(F)(F)F)cc2)cc1-c1ccc2c(c1)OC(F)(F)O2` [Compound 208] yielded a half-maximal effective concentration (EC50) in experiment [1] of 50 to 200 µM. Moreover, the IC50 in experiment [2] lay in the range of 50 to 200 µM.

For the compound `Cc1cc(=O)n(-c2ccc(OC(F)(F)F)cc2)cc1-c1ccc2c(c1)NC(=O)CO2` [Compound 209], in experiment [1], the EC50 is < 50 µM. Also, the IC50 in experiment [2] is < 50 µM.

Turning to `Cc1cc(=O)n(-c2ccc(OC(F)(F)F)cc2)cc1-c1ccc2c(c1)N(C)C(=O)CO2` [Compound 210], the EC50 in experiment [1] was < 50 µM. For the same compound, in experiment [2], the IC50 was > 200 µM.

The compound `Cc1ccc(-n2cc(-c3ccc(F)cc3)c(C)cc2=O)cc1` [Compound 216] gave an EC50 in experiment [1] of 50 to 200 µM. For the same compound, the IC50 in experiment [2] is < 50 µM.

With `Cc1cc(=O)n(-c2ccc(OC(F)(F)F)cc2)cc1-c1cn[nH]c1` [Compound 218], in experiment [1], the EC50 is < 50 µM. For the same compound, the half-maximal inhibitory concentration (IC50) in experiment [2] was < 50 µM.

Compound `CCOc1ccc(-n2cc(-c3cn[nH]c3)c(C)cc2=O)c(C)c1` [Compound 219] showed an EC50 in experiment [1] of 50 to 200 µM. Besides, in experiment [2], the half-maximal inhibitory concentration (IC50) is > 200 µM.
